Key:
[1] = test system: standard strain of Staphylococcus aureus; assay: bactericidal ability test, development of bacteria after contact and overnight culture; type: cell-based; settings: ozone-oxidized glycerin of about 10 unit/g, cultured overnight at 37° C., FIG. 1
[2] = test system: standard strain of Escherichia coli; assay: as above; type: cell-based; settings: ozone-oxidized glycerin of about 10 unit/g, cultured overnight at 37° C., FIG. 1
[3] = test system: standard strain of Pseudomonas aeruginosa; assay: as above; type: cell-based; settings: ozone-oxidized glycerin of about 10 unit/g, cultured overnight at 37° C., FIG. 1
[4] = test system: clinical isolated strain of Salmonella; settings: ozone-oxidized glycerin of about 10 unit/g, cultured overnight at 37° C., FIG. 1
[5] = biological target: T1, catalase (Homo sapiens, UniProt P04040); assay: catalase test, oxidation ability in time sequence by potassium iodide titration; type: physicochemical; settings: catalase final concentration 0.003%
T1 sequence (P04040 1-527): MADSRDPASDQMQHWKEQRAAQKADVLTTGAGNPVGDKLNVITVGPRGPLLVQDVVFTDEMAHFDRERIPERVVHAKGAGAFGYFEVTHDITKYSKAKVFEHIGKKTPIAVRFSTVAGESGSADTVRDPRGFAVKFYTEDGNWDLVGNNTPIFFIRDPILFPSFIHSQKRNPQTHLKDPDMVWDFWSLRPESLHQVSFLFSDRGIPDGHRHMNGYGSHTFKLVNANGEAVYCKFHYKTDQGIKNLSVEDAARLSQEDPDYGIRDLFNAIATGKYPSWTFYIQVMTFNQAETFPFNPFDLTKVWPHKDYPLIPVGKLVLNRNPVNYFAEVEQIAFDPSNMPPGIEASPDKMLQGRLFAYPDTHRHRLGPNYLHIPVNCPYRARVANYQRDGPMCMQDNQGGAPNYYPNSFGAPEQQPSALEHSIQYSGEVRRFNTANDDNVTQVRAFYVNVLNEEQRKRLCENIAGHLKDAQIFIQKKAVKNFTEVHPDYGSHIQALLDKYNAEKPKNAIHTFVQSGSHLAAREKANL

time until the oxidation ability almost disappeared ([5]; 0.03% hydrogen peroxide solution, FIG. 8 left) [min]	attenuation of the oxidation ability due to catalase ([5]; FIG. 8)	SMILES	bactericidal effects [1]	bactericidal effects [2]	bactericidal effects [3]	bactericidal effects [4]
		OCC(O)CO [glycerin]	not recognized	not recognized	not recognized	not recognized
5	rapidly attenuated	OO [hydrogen peroxide]				
